The data set has as its target ATP-dependent translocase ABCB1 (Homo sapiens, UniProt P08183). Put plainly: TP_TRANSPORTER: transepithelial transport of cyclosporin A in Caco-2 cells. The format is functional, cell-based. (Passage across Caco-2 layers is used to estimate intestinal permeability.)

The source of these data is ChEMBL document CHEMBL2074432, “Human jejunal permeability of cyclosporin A: influence of surfactants on P-glycoprotein efflux in Caco-2 cells” (Pharm Res, 2003).

ATP-dependent translocase ABCB1, sequence (P08183 whole entry): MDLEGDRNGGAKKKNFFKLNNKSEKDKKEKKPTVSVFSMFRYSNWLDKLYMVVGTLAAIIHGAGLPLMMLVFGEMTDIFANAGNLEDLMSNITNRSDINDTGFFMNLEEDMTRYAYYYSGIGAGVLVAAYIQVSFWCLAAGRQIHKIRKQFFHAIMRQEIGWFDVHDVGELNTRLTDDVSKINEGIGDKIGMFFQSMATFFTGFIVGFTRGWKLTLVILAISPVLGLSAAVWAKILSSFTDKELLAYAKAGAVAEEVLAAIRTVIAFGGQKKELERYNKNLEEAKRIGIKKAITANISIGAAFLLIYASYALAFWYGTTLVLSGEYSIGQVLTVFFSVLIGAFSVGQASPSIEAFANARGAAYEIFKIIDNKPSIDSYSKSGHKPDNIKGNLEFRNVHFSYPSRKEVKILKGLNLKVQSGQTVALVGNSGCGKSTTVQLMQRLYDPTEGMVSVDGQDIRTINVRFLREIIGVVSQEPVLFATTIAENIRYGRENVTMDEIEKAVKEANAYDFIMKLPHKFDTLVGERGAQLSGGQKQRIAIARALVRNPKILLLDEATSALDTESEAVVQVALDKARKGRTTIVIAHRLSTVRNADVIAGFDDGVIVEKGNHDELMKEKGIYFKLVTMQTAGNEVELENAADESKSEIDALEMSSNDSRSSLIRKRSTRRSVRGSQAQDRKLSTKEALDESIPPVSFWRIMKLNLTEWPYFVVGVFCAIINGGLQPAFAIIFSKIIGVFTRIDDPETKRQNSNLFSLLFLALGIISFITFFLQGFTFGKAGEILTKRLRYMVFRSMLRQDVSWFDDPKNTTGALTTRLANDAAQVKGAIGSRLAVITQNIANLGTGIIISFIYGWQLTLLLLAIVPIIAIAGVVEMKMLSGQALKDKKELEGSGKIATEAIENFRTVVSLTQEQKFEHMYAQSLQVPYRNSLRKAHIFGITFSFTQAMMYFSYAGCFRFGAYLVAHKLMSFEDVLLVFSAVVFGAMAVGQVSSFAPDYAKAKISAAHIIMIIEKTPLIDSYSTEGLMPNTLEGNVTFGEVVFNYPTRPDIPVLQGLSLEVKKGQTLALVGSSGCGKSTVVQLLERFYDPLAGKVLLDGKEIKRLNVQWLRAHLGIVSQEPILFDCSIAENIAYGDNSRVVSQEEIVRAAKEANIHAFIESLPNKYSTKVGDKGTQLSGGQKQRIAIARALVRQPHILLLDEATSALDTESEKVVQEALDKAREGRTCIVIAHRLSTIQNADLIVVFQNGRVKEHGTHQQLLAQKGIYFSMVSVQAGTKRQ

Consider CREMOPHOR EL, for which the Activity result is “inhibitor [+]”. For CREMOPHOR RH 40 the value was “inhibitor [+]”.
